According to PubChem BioAssay (NCI):
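Cultured in 96-well plates, cells were exposed to test compound for 48 hours across five concentrations. The concentration for 50% growth inhibition is given as GI50. TGI marks complete inhibition of growth.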

Columns and labels:
Assay in all cases: growth of human tumour cells (NCI), 48 h
RPMI-8226 leukemia = system: RPMI-8226 leukemia
U251 CNS = system: U251 CNS
HCT-15 colon = system: HCT-15 colon
OVCAR-3 ovarian = system: OVCAR-3 ovarian
SNB-19 CNS = system: SNB-19 CNS
SN12C renal = system: SN12C renal
IGROV1 ovarian = system: IGROV1 ovarian
A549 NSCLC = system: A549 NSCLC
NCI-H522 lung = system: NCI-H522 lung
786-0 renal = system: 786-0 renal

COc1ccc(C2C=C(c3ccc(Cl)cc3)N=C3SC=C(C)N32)c(Br)c1 (stereo not given)
GI50 (RPMI-8226 leukemia): 2.18 µM
TGI (RPMI-8226 leukemia): 9.67 µM
GI50 (U251 CNS): 3.34 µM
TGI (U251 CNS): 13.1 µM
GI50 (HCT-15 colon): 2.42 µM
TGI (HCT-15 colon): 12.2 µM
GI50 (OVCAR-3 ovarian): 2.36 µM
TGI (OVCAR-3 ovarian): 5.48 µM
GI50 (SNB-19 CNS): 5.25 µM
TGI (SNB-19 CNS): 21.7 µM
GI50 (SN12C renal): 3.23 µM
TGI (SN12C renal): 15.1 µM
GI50 (IGROV1 ovarian): 3.62 µM
TGI (IGROV1 ovarian): 20.4 µM
GI50 (A549 NSCLC): 3 µM
TGI (A549 NSCLC): 24.7 µM
GI50 (NCI-H522 lung): 2.96 µM
TGI (NCI-H522 lung): 9.29 µM
GI50 (786-0 renal): 3.57 µM
TGI (786-0 renal): 25.4 µM

O=C(Nc1ccccc1O)c1ccc(NS(=O)(=O)c2cccc3cccnc23)cc1
GI50 (RPMI-8226 leukemia): 0.464 µM
TGI (RPMI-8226 leukemia): > 9.66 µM
GI50 (U251 CNS): 1.3 µM
TGI (U251 CNS): 5.4 µM
GI50 (HCT-15 colon): 2.08 µM
TGI (HCT-15 colon): 7.71 µM
GI50 (OVCAR-3 ovarian): 1.42 µM
TGI (OVCAR-3 ovarian): 5.61 µM
GI50 (SNB-19 CNS): 2.89 µM
TGI (SNB-19 CNS): > 14.8 µM
GI50 (SN12C renal): 2.78 µM
TGI (SN12C renal): > 19.7 µM
GI50 (IGROV1 ovarian): 3.06 µM
TGI (IGROV1 ovarian): 9.95 µM
GI50 (A549 NSCLC): 2.03 µM
TGI (A549 NSCLC): 9.02 µM
GI50 (NCI-H522 lung): 0.67 µM
TGI (NCI-H522 lung): 3.47 µM
GI50 (786-0 renal): 2.4 µM
TGI (786-0 renal): 6.4 µM

CN1CCN(Cc2ccc3c(NNC(=O)c4ccccc4)nc4cc(F)ccc4n23)CC1
GI50 (RPMI-8226 leukemia): 0.574 µM
TGI (RPMI-8226 leukemia): 18.1 µM
GI50 (U251 CNS): 0.373 µM
TGI (U251 CNS): 19 µM
GI50 (HCT-15 colon): 0.0568 µM
TGI (HCT-15 colon): > 49.4 µM
GI50 (OVCAR-3 ovarian): 0.337 µM
TGI (OVCAR-3 ovarian): 40.1 µM
GI50 (SNB-19 CNS): 0.587 µM
TGI (SNB-19 CNS): > 100 µM
GI50 (SN12C renal): 0.551 µM
TGI (SN12C renal): > 100 µM
GI50 (IGROV1 ovarian): 0.487 µM
TGI (IGROV1 ovarian): 49.2 µM
GI50 (A549 NSCLC): 0.473 µM
TGI (A549 NSCLC): 21.8 µM
GI50 (NCI-H522 lung): 0.55 µM
TGI (NCI-H522 lung): 12.9 µM
GI50 (786-0 renal): 0.376 µM
TGI (786-0 renal): 17.8 µM

Cc1c(C(N)=O)sc2c1c(=O)n(Cc1ccccc1)c1nnc(-c3ccc(Br)cc3)n21
GI50 (RPMI-8226 leukemia): 4.72 µM
TGI (RPMI-8226 leukemia): 47.7 µM
GI50 (U251 CNS): 1.56 µM
TGI (U251 CNS): 13 µM
GI50 (HCT-15 colon): 0.705 µM
TGI (HCT-15 colon): 17.9 µM
GI50 (OVCAR-3 ovarian): 2.48 µM
TGI (OVCAR-3 ovarian): 16.9 µM
GI50 (SNB-19 CNS): 2.91 µM
TGI (SNB-19 CNS): 17.5 µM
GI50 (SN12C renal): 2.36 µM
TGI (SN12C renal): 14.1 µM
GI50 (IGROV1 ovarian): 2.15 µM
TGI (IGROV1 ovarian): 19.2 µM
GI50 (A549 NSCLC): 2.51 µM
TGI (A549 NSCLC): 13.1 µM
GI50 (NCI-H522 lung): 3.13 µM
TGI (NCI-H522 lung): 12.9 µM
GI50 (786-0 renal): 2.09 µM
TGI (786-0 renal): 5.73 µM

Cc1cc(O)c(/C=N/C(=S)Nc2ccccc2)c(=O)o1
TGI (RPMI-8226 leukemia): > 100 µM
TGI (U251 CNS): > 100 µM
TGI (HCT-15 colon): > 100 µM
TGI (OVCAR-3 ovarian): > 100 µM
TGI (SNB-19 CNS): > 100 µM
TGI (SN12C renal): > 100 µM
TGI (IGROV1 ovarian): > 100 µM
TGI (A549 NSCLC): > 100 µM
TGI (NCI-H522 lung): > 100 µM
TGI (786-0 renal): > 100 µM

Clc1ccccc1C(Nc1ncccn1)Nc1ncccn1
TGI (RPMI-8226 leukemia): > 100 µM
TGI (U251 CNS): > 100 µM
TGI (HCT-15 colon): > 100 µM
TGI (OVCAR-3 ovarian): > 100 µM
TGI (SNB-19 CNS): > 100 µM
TGI (SN12C renal): > 100 µM
TGI (IGROV1 ovarian): > 100 µM
TGI (A549 NSCLC): > 100 µM
TGI (NCI-H522 lung): > 100 µM
TGI (786-0 renal): > 100 µM

COc1ccc(C(CC(=O)c2ccccc2)C(C(=O)c2ccccc2)C(c2ccc(OC)cc2)C2C(=O)NC(=S)NC2=O)cc1 (stereo not given)
GI50 (RPMI-8226 leukemia): 25.6 µM
TGI (RPMI-8226 leukemia): > 100 µM
GI50 (U251 CNS): 7.42 µM
TGI (U251 CNS): 23.6 µM
GI50 (HCT-15 colon): 12.9 µM
TGI (HCT-15 colon): 37.2 µM
GI50 (OVCAR-3 ovarian): 4.96 µM
TGI (OVCAR-3 ovarian): 24.8 µM
GI50 (SNB-19 CNS): 24.9 µM
TGI (SNB-19 CNS): > 100 µM
GI50 (SN12C renal): 12.8 µM
TGI (SN12C renal): 45.2 µM
GI50 (IGROV1 ovarian): 8.67 µM
TGI (IGROV1 ovarian): 48.5 µM
GI50 (A549 NSCLC): 8.96 µM
TGI (A549 NSCLC): 75.7 µM
GI50 (NCI-H522 lung): 11.9 µM
TGI (NCI-H522 lung): 35.1 µM
GI50 (786-0 renal): 21.7 µM
TGI (786-0 renal): > 100 µM
